Measured values taken from PMC4336141, “Repurposing Auranofin as a Lead Candidate for Treatment of Lymphatic Filariasis and Onchocerciasis” (PLoS Neglected Tropical Diseases, 2015).
Entries after “also recorded” stand apart in the source; their conditions may differ.

Legend:
adult female B. pahangi = assay: Transmission electron microscopy of treated adult female B. pahangi; type: cell-based, Brugia pahangi; conditions: flubendazole 10 μM overnight, positive control
Protocol: Adult female B. pahangi worms were incubated with either 1 μM, 0.3 μM, or 0.1 μM auranofin, 10 μM flubendazole (as a positive control), or 1% DMSO overnight, then cut into 3 segments separating the anterior, middle and posterior sections. The middle sections were further cut into 1 mm sized pieces in fixative (2.5% glutaraldehyde and 2% paraformaldehyde in 0.1 M sodium cacodylate buffer, pH 7.3–7.4) and stored at 4°C. Middle sections were subsequently treated with 1% tannic acid for 1 hour, followed by three buffer washes before post fixation staining with 2% osmium tetroxide for 1 hour. The samples were washed three times in buffer before dehydration in an ethanol series. Worm sections were then infiltrated with propylene oxide, embedded in epon 812 resin and polymerized in a vacuum oven at 60°C overnight. Ultrathin sections were cut using an RMC MTX ultramicrotome with a Diatome diamond knife followed by post staining of the grids with saturated ethanolic uranyl acetate and Reynolds lead citrate. Samples were imaged on a FEI Tecnai 12 spirit TEM operated at 80 kV. A similar procedure was performed on adult female O. ochengi worm masses that were cultured for 7 days with 10 μM auranofin before fixation of cut pieces of the adult female mass. Untreated adult female masses cultured for 7 days and fixed by the same procedure served as the control.

[1] = system: Recombinant B. malayi TrxR (rBmTrxR); assay: Recombinant B. malayi TrxR (rBmTrxR) DTNB inhibition assay; type: biochemical, Brugia malayi
Protocol: Recombinant 6-His-tagged B. malayi TrxR (rBmTrxR) was produced in E. coli BL21(DE3) in the presence of pSUABC [29] in LB medium supplemented with 20 μg/mL riboflavin under conditions for optimal selenoprotein expression. An overnight starter culture in LB with 50 μg/mL ampicillin and 34 μg/mL chloramphenicol was diluted (1:100) into in LB medium with the same antibiotics. When the culture reached an OD600 = 0.8, the medium was supplemented with 5 μM sodium selenite and 100 μg/mL L-cysteine. When the culture OD600 = 2, riboflavin (20 μg/mL) was added and protein expression was induced by the addition of isopropyl β-D-1-thiogalactopyranoside (50 μM). At this point the cultures were shifted to 24°C and incubated for 24 hr. Cells were collected by centrifugation, lysed by alternative freeze-thaw cycles, and resuspended in lysis buffer (50 mM potassium phosphate, pH 7.8, 500 mM NaCl, 30 mM imidazole, 1 mg/mL lysozyme, 1 mM phenylmethanesulfonylfluoride) supplemented with 100 μM flavin adenine dinucleotide. The sample was sonicated and cellular debris pelleted at 25,000 x g at 4°C for 25 min. The supernatant was collected and filtered through a 0.45 μm filter before purification by immobilized metal ion affinity chromatography using a His-Trap FF column (GE Healthcare). The column was washed with 10 column volumes binding buffer (50 mM potassium phosphate, pH 7.8, 500 mM NaCl, 30 mM imidazole) and then with 5 column volumes of buffer A (binding buffer with 100 mM imidazole). TrxR protein was eluted in 3 × 1 mL buffer B (binding buffer with 500 mM imidazole).Protein was concentrated (Amicon Ultra-4 10K) and purity was verified by SDS-PAGE and quantified by absorbance at 280 nm (ε = 69.76 mM^-1 cm^-1).
rBmTrxR activity was assayed in 0.1 M potassium phosphate (pH 7.2) with 10 mM EDTA and 25 nM rBmTrxR. rBmTxrR was pre-incubated for 20 min with NADPH (100 μM) and auranofin (ICN Pharmaceuticals, now Valeant Pharmaceuticals, Bridgewater, NJ) or aurothioglucose (USP Reference Standards, Rockville, MD) in DMSO in 100 μL, followed by addition of an equal volume of buffer with NADPH (200 μM) and DTNB (6 mM) with reaction progress monitored at λ = 412 nm for TNB production. The concentration of DMSO in all reactions was 3.5%.

COC(=O)Nc1nc2cc(C(=O)c3ccc(F)cc3)ccc2[nH]1 [flubendazole]
ultrastructure (TEM) of adult female B. pahangi (adult female B. pahangi): normal Wolbachia with very few mitochondria containing dark bodies; also recorded: did not cause vacuolization but only minor changes to the mitochondria

aurothioglucose
mode of inhibition of rBmTrxR [1]: irreversibly inhibit rBmTrxR at a one-to-one molar ratio | IC50 ([1]; 25 nM rBmTrxR, 20 min pre-incubation with NADPH, DTNB substrate): 9 nM
